Test results reported in US9018208B2, “Heterocycles as potassium channel modulators” (Icagen Inc., priority 2007, dated 2015).

Tested on: SH-SY5Y M-currents (KCNQ2, KCNQ3 and KCNQ5)
Assay: SH-SY5Y native cell line FLIPR assay (voltage-sensitive dye DiBAC)
Assay type: cell-based, mouse neuroblastoma, rat glioma hybrid cell line
Conditions: FLIPR assay, SH-SY5Y native cell line; Table 2; read-out: SH-SY5Y EC50
Method in brief: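 Response is peak DiBAC fluorescence change, normalised to the maximum from a positive control agent, sampled every 30 s over 25 min. Before compound addition, SH-SY5Y cells differentiated with PGE1 plus isomethylbutylxanthine were dye-loaded for 1 h in EBSS with […] DiBAC.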

Question: Which EC50 does the source give for `O=C(CCC(F)(F)F)Nc1nc2cc(C(F)(F)F)ccn2c1-c1ccccc1` [Compound 105, 4,4,4-trifluoro-N-(3-phenyl-7-(trifluoromethyl)imidazo[1,2-a]pyridin-2-yl)butanamide] here?
Answer: 3000 to 10000 nM

Question: How did the EC50 turn out when `O=C(Cc1ccccc1)Nc1nc2ccc(F)cn2c1-c1ccc(F)cc1` [Compound 106, N-(6-fluoro-3-(4-fluorophenyl)imidazo[1,2-a]pyridin-2-yl)-2-phenylacetamide] was run?
Answer: 500 to 3000 nM

Question: Which EC50 does the source give for `O=C(CC1CCCC1)Nc1nc2ccc(F)cn2c1-c1ccc(F)cc1` [Compound 107, 2-cyclopentyl-N-(6-fluoro-3-(4-fluorophenyl)imidazo[1,2-a]pyridin-2-yl)acetamide] here?
Answer: < 500 nM

Question: With `O=C(CCC(F)(F)F)Nc1nc2ccc(F)cn2c1-c1ccc(F)cc1` [Compound 108, 4,4,4-trifluoro-N-(6-fluoro-3-(4-fluorophenyl)imidazo[1,2-a]pyridin-2-yl)butanamide] as the compound, how does the EC50 read?
Answer: 500 to 3000 nM

Question: Which EC50 does the source give for `CC(C(=O)Nc1nc2ccc(F)cn2c1-c1ccc(F)cc1)c1ccccc1` (stereo not shown) [Compound 109, N-(6-fluoro-3-(4-fluorophenyl)imidazo[1,2-a]pyridin-2-yl)-2-phenylpropanamide] here?
Answer: 500 to 3000 nM

Question: Which EC50 does the source give for `CC(C(=O)Nc1nc2cc(C(F)(F)F)ccn2c1-c1ccccc1)c1ccccc1` (stereo not shown) [Compound 110, 2-phenyl-N-(3-phenyl-7-(trifluoromethyl)imidazo[1,2-a]pyridin-2-yl)propanamide] here?
Answer: 500 to 3000 nM

Question: How did the EC50 turn out when `O=C(Cc1ccc(F)cc1)Nc1nc2cc(C(F)(F)F)ccn2c1-c1ccc(F)cc1` [Compound 111, 2-(4-fluorophenyl)-N-(3-(4-fluorophenyl)-7-(trifluoromethyl)imidazo[1,2-a]pyridin-2-yl)acetamide] was run?
Answer: 500 to 3000 nM

Question: For `O=C(Cc1ccccc1)Nc1nc2cc(C(F)(F)F)ccn2c1-c1ccc(F)cc1` [Compound 112, N-(3-(4-fluorophenyl)-7-(trifluoromethyl)imidazo[1,2-a]pyridin-2-yl)-2-phenylacetamide], which EC50 is on record?
Answer: 500 to 3000 nM

Question: Which EC50 does the source give for `CC(C)(C)CC(=O)Nc1nc2cc(C(F)(F)F)ccn2c1-c1ccc(F)cc1` [Compound 113, N-(3-(4-fluorophenyl)-7-(trifluoromethyl)imidazo[1,2-a]pyridin-2-yl)-3,3-dimethylbutanamide] here?
Answer: 500 to 3000 nM

Question: For `CC(C(=O)Nc1nc2cc(C(F)(F)F)ccn2c1-c1ccc(F)cc1)c1ccccc1` (stereo not shown) [Compound 114, N-(3-(4-fluorophenyl)-7-(trifluoromethyl)imidazo[1,2-a]pyridin-2-yl)-2-phenylpropanamide], which EC50 is on record?
Answer: 500 to 3000 nM

Question: With `O=C(Cc1ccccc1)Nc1nc2ccc(F)cn2c1-c1ccc(F)cc1F` [Compound 115, N-(3-(2,4-difluorophenyl)-6-fluoroimidazo[1,2-a]pyridin-2-yl)-2-phenylacetamide] as the compound, how does the EC50 read?
Answer: 500 to 3000 nM

Question: With `CC(C)(C)CC(=O)Nc1nc2ccc(F)cn2c1-c1ccc(F)cc1F` [Compound 116, N-(3-(2,4-difluorophenyl)-6-fluoroimidazo[1,2-a]pyridin-2-yl)-3,3-dimethylbutanamide] as the compound, how does the EC50 read?
Answer: 500 to 3000 nM

Question: For `O=C(Cc1ccc(F)cc1)Nc1nc2ccc(F)cn2c1-c1ccc(F)cc1F` [Compound 117, N-(3-(2,4-difluorophenyl)-6-fluoroimidazo[1,2-a]pyridin-2-yl)-2-(4-fluorophenyl)acetamide], which EC50 is on record?
Answer: 500 to 3000 nM

Question: How did the EC50 turn out when `O=C(CC1CCCC1)Nc1nc2ccc(F)cn2c1-c1ccc(F)cc1F` [Compound 118, 2-cyclopentyl-N-(3-(2,4-difluorophenyl)-6-fluoroimidazo[1,2-a]pyridin-2-yl)acetamide] was run?
Answer: 500 to 3000 nM

Question: How did the EC50 turn out when `O=C(Cc1ccccc1)Nc1nc2ccc(C(F)(F)F)cn2c1-c1ccc(F)cc1` [Compound 119, N-(3-(4-fluorophenyl)-6-(trifluoromethyl)imidazo[1,2-a]pyridin-2-yl)-2-phenylacetamide] was run?
Answer: < 500 nM

Question: How did the EC50 turn out when `CC(C)(C)CC(=O)Nc1nc2ccc(C(F)(F)F)cn2c1-c1ccc(F)cc1` [Compound 120, N-(3-(4-fluorophenyl)-6-(trifluoromethyl)imidazo[1,2-a]pyridin-2-yl)-3,3-dimethylbutanamide] was run?
Answer: < 500 nM
